Measurements from patent publication US20240000753A1, “METHODS AND COMPOSITIONS TO INCREASE LIFESPAN AND HEALTHSPAN BY MIMICKING THE EFFECTS OF TIME-RESTRICTED FEEDING” (The Trustees of Columbia University in the City of New York, priority 2020, published 2024).

Tested on: Drosophila
Test: Lifespan analysis of flies fed RU486
Format: in vivo
Conditions: flies lacking UAS-RNAi transgenes; RU486 fed from day 5 post-eclosion until death (FIG. 5K)
Method: All drugs were supplemented into cooled (65° C.) liquid adult medium (containing 3% yeast extract) following preparation to the following final concentration(s): RU486 (Cayman Chemical) was dissolved in ethanol was supplemented into medium after day 5 of eclosion at a final concentration of 100 μg/mL (with the exception of daGS>UAS-atg1 and controls, 0.5 μg/mL) vehicle controls were supplemented with same volume of ethanol alone. Timed RU486 feeding of daGS>UAS-atg1 consisted of flies being fed 0.5 μg/mL in standard adult media or fasting media only during the fasting phase, then flipped to vehicle control food the following morning only from days 10-40 of adulthood. Vehicle only controls were flipped at the same time for consistency. For gut microbe clearance, the medium contained 500 μg/mL ampicillin, 50 μg/mL tetracycline, and 200 μg/mL rifamycin in 50% ethanol. Same volume of 50% ethanol alone was used as the vehicle control. Drosophila were reared from embryos in low-density bottles with standard yeast cornmeal-agar media listed above (Archon Scientific) Newly eclosed flies (˜24 hours) were collected onto adult medium w/3% yeast extract and allowed to mate for 48 hours. […] Death was scored at time of flipping, and lifespan compared by log-rank analysis.

## CC#C[C@]1(O)CC[C@H]2[C@@H]3CCC4=CC(=O)CCC4=C3[C@@H](c3ccc(N(C)C)cc3)C[C@@]21C [RU486]
  effect on iTRF-mediated lifespan extension: no effect
